# Laboratory results: PMC3161871, “Heteroarylketones inhibit astroglial interleukin-6 expression via a STAT3/NF-κB signaling pathway” (Journal of Neuroinflammation, 2011)
# Experiments:
# [1] = test system: LPS-induced IL-6 release in primary mouse astrocytes; assay: LPS-induced IL-6 release in primary mouse astrocytes (ELISA); type: cell-based; conditions: 1 μg/ml LPS, 20 μM compound, 24 h
# Protocol: According to Löffler, astrocyte-rich primary cell cultures were started with brains of newborn mice and rats and were maintained in Dulbecco's modified Eagle's medium (DMEM) for 33 days at 37°C in a humified atmosphere with 95% air/5% CO2.
# Measurements of IL-6 in conditioned medium and murine plasma samples were done by means of human- or murine-specific IL-6 Cytoset kits (Invitrogen, Darmstadt, Germany) according to manufacturer's protocols.
# Figure 5 Suppression of LPS-induced IL-6 release in primary murine astrocytes by selected HAK compounds. […] Astrocytes derived from newborn mice and rats were cultivated for 33 days followed by stimulation with 1 μg/ml LPS and treatment with compounds HAK-2 and HAK-5 (20 μM). After 24 hours conditioned media were analyzed with IL-6 specific ELISA. Data (mean ± SD) were obtained from experiments carried out in quadruplicate and statistical analysis was performed using the paired t test. Amount of IL-6 in LPS-treated control sample was set to 100%. ns, not significant; **p < 0.01; ***p < 0.001.
# Primary murine astrocytes stimulated with 1 μg/ml LPS were co-treated with compounds HAK-2 and HAK-5 at a concentration of 20 μM each for 24 h. The observed effect of compounds HAK-2 and HAK-5 on LPS stimulation was similar to that of OSM-induced IL-6 expression in human U343 glioma cells (Figures 5A and 5B). […]
# [2] = test system: OSM-stimulated IL-6 secretion from U343 cells; assay: OSM-induced IL-6 release from U343 glioma cells (IL-6 ELISA of conditioned medium); type: cell-based, human; conditions: 20 μM compound, vehicle-transfected U343 cells, OSM 6 h
# [3] = test system: IL-6 mRNA expression in U343 cells; assay: OSM-induced IL-6 mRNA expression in U343 cells (qRT-PCR time course); type: cell-based, human; conditions: 20 μM compound
# Protocol: The human glioma cell line U343 [34] was maintained in DMEM containing 10% fetal bovine serum and 60 μg/ml gentamycin (Invitrogen, Darmstadt, Germany) at 37°C in a 10% CO2 atmosphere.
# Total RNA of cultured cells and homogenized mouse brain tissue samples was isolated using RNA isolation kit "NucleoSpin RNA II" from Macherey and Nagel. RNA quantity was measured by spectrophotometrical quantification (NanoDrop 2000, Peqlab, Erlangen, Germany). Total RNA (0.5 μg) was transcribed to cDNA using Superscript III and oligo-dT primer (Invitrogen, Darmstadt, Germany). Quantitative real-time PCR was performed with QuantiFast SYBR Green PCR Master mix (Qiagen, Hilden, Germany) using Rotorgene 3000 system (Corbett, Sydney, Australia). Gene expression was normalized to the expression of three reference genes glyceraldehyde 3-phosphate dehydrogenase (GAPDH), glucose-6-phosphate dehydrogenase (G6PDH) and hypoxanthine-guanine phosphoribosyltransferase (HPRT). Primers for PREP (5'-[…]-3'; 5'- […]-3') and IL-6 (5'-AAAGGACGTCACATTGCA-3'; 5'-[…]-3') were designed using the Primer3 Software (http://frodo.wi.mit.edu/). Data were analyzed by Rotorgene 3000 Software version 6.0 by comparative quantitation. The appropriate size of PCR products was confirmed by gel-electrophoresis stained with ethidium bromide.
# To analyze the time-course of OSM-induced IL-6 expression, U343 cells were incubated with OSM for different periods of time as indicated in figure 1B. Amounts of IL-6 mRNA and protein were subsequently quantified by qRT-PCR and by ELISA, respectively. […] Significant induction of IL-6 protein was detected in the conditioned medium as early as 3 h post stimulation and reaching a maximum at 24 h.
# To reveal whether bioactivity of HAK compounds is based on suppression of IL-6 protein biosynthesis or on interference with IL-6 mRNA expression OSM-treated U343 cells were incubated with 20 μM of compound HAK-2 for different periods of time. […] Therefore, it is very likely that the relevant molecular target of HAK compounds is involved in the OSM-induced signal transduction process not earlier than 6 h after onset of the stimulation.
# Figure 4 Time course of OSM-induced IL-6 mRNA expression in U343 cells treated with compound HAK-2. […] U343 cells were stimulated with 100 ng/ml OSM and treated with 0.1% DMSO as solvent control (solid line, black triangle) or 20 μM HAK-2 (dashed line, white triangle). Samples were harvested at time points indicated to extract total RNA. IL-6 mRNA expression was analyzed by qRT-PCR. All data points are presented as mean ± SD, and were obtained from experiments carried out in quadruplicate. Statistical analysis were performed between control and HAK-2 samples from same time point. ns, not significant; ***p < 0.001.
smiles,measurement,setting,value
"C[C@H](NC(=O)OCc1ccccc1)C(=O)N1CCC[C@H]1C(=O)c1nc2ccccc2s1 [HAK-2, Z-Ala-Pro-BTh]",Reduction of LPS-induced IL-6 expression,[1],60%
same,IL-6 levels (mRNA and released protein) in the PREP knock-down experiment,[2],reduces IL-6 levels
same,Inhibition of OSM-induced IL-6 mRNA expression (time course),[3]; 100 ng/ml OSM,strong inhibition
same,Effect on second IL-6 mRNA expression peak,"[3]; 100 ng/ml OSM, 6 h post stimulation",completely suppresses
same,Effect on first IL-6 mRNA peak,[3]; 1 h post OSM stimulation,insensitive
